Reference: patent US10315996B2, “ROR gamma (RORγ) modulators” (LEAD PHARMA HOLDING B.V., priority 2015, dated 2019)

Target: T1, RORγ (Homo sapiens, UniProt P51449)
T1 construct: expressed in transfected cells; host or cells: 293FT cells (Invitrogen), expression vector pFN26A (Promega)
T1 sequence (P51449 269-508 limits assumed): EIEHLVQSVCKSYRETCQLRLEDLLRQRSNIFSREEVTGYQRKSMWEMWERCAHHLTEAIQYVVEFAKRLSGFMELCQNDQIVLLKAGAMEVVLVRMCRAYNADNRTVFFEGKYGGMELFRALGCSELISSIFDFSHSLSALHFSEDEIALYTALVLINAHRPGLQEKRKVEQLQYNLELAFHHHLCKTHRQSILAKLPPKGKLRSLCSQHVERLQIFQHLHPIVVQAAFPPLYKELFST
Test: RORγ GAL4 reporter gene assay
Assay type: cell-based
Settings: inhibition of RORγ activity, GAL4-RORγ-LBD luciferase reporter in 293FT cells, overnight incubation; read-out: mean pIC50 (converted)
Summary of the method: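 293FT cells were transiently co-transfected with GAL4-DBD–RORγ-LBD (or GAL4-VP16 control) and a 9×UAS luc2P reporter, then plated at 60,000 cells/well. Compound was added at final 0.2% DMSO for 16-24 h at 37 °C, and inhibition was measured by firefly luciferase luminescence.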

Structure (SMILES): O=C(Cc1ccc(S(=O)(=O)CC2CC2)cc1)Nc1ccc(C(=O)Nc2ccccc2OC(F)(F)F)cc1 [Example 74, 4-[2-(4-cyclopropylmethanesulfonylphenyl)acetamido]-N-[2-(trifluoromethoxy)phenyl]benzamide]
- IC50: ≤ 100 nM

Structure (SMILES): CC(C)[C@@H](NC(=O)c1ccc(NC(=O)Cc2ccc(S(=O)(=O)CC3CC3)cc2)cc1)C(F)(F)F [Example 69, 4-[2-(4-cyclopropylmethanesulfonylphenyl)acetamido]-N-[(2R)-1,1,1-trifluoro-3-methylbutan-2-yl]benzamide]
- IC50: ≤ 1000 nM

Structure (SMILES): O=C(Cc1ccc(S(=O)(=O)CC2CC2)cc1)Nc1ccc(C(=O)N2CCc3ccccc3C2)cc1 [Example 55, 2-(4-cyclopropylmethanesulfonylphenyl)-N-[4-(1,2,3,4-tetrahydroisoquinoline-2-carbonyl)phenyl]acetamide]
- IC50: ≤ 100 nM

Structure (SMILES): CCN(C(=O)c1ccc(NC(=O)Cc2ccc(S(=O)(=O)CC3CC3)cc2)c(F)c1)c1ccccc1 [Example 102, 4-[2-(4-cyclopropylmethanesulfonylphenyl)acetamido]-N-ethyl-3-fluoro-N-phenylbenzamide]
- IC50: ≤ 10 nM

Structure (SMILES): CN(C(=O)c1ccc(NC(=O)Cc2ccc(S(=O)(=O)CC3CC3)cc2)cc1)C(C)(C)C [Example 26, N-tert-butyl-4-[2-(4-cyclopropylmethanesulfonylphenyl)acetamido]-N-methylbenzamide]
- IC50: ≤ 1000 nM

Structure (SMILES): CC1CCCCN1C(=O)c1ccc(NC(=O)Cc2ccc(S(=O)(=O)CC3CC3)cc2)cc1 (stereo not shown) [Example 28, 2-(4-cyclopropylmethanesulfonylphenyl)-N-[4-(2-methylpiperidine-1-carbonyl)phenyl]acetamide]
- IC50: ≤ 1000 nM

Structure (SMILES): CN(C(=O)c1ccc(NC(=O)Cc2ccc(S(=O)(=O)CC3CC3)cc2)cc1Cl)c1ccccn1 [Example 67, 2-chloro-4-[2-(4-cyclopropylmethanesulfonylphenyl)acetamido]-N-methyl-N-(pyridin-2-yl)benzamide]
- IC50: ≤ 1000 nM

Structure (SMILES): CCN(C(=O)c1ccc(NC(=O)Cc2ccc(S(=O)(=O)CC3CC3)cc2)cc1)c1cccc(C)c1 [Example 31, 4-[2-(4-cyclopropylmethanesulfonylphenyl)acetamido]-N-ethyl-N-(3-methylphenyl)benzamide]
- IC50: ≤ 10 nM

Structure (SMILES): CC(C)(C)NC(=O)c1ccc(NC(=O)Cc2ccc(S(=O)(=O)CC3CC3)cc2)cc1 [Example 11, N-tert-butyl-4-[2-(4-cyclopropylmethanesulfonylphenyl)acetamido]benzamide]
- IC50: ≤ 1000 nM

Structure (SMILES): CCN(C(=O)c1ccc(NC(=O)Cc2ccc(S(=O)(=O)CC3CC3)cc2)cc1Cl)c1cccc(C)c1C [Example 120, 2-chloro-4-[2-(4-cyclopropylmethanesulfonylphenyl)acetamido]-N-(2,3-dimethylphenyl)-N-ethylbenzamide]
- IC50: ≤ 100 nM

Structure (SMILES): CCN(C(=O)c1ccc(NC(=O)Cc2ccc(S(=O)(=O)CC3CC3)cc2)cc1F)c1ccccc1 [Example 99, 4-[2-(4-cyclopropylmethanesulfonylphenyl)acetamido]-N-ethyl-2-fluoro-N-phenylbenzamide]
- IC50: ≤ 10 nM

Structure (SMILES): CCN(C(=O)c1ccc(NC(=O)Cc2ccc(S(=O)(=O)NC3CC3)cc2)cc1)c1cccc(C)c1 [Example 46, 4-{2-[4-(cyclopropylsulfamoyl)phenyl]acetamido}-N-ethyl-N-(3-methylphenyl) benzamide]
- IC50: ≤ 10 nM

Structure (SMILES): CN(C(=O)c1ccc(NC(=O)Cc2ccc(S(=O)(=O)CC3CC3)cc2)cc1)c1ccccn1 [Example 17, 4-[2-(4-cyclopropylmethanesulfonylphenyl)acetamido]-N-methyl-N-(pyridin-2-yl)benzamide]
- IC50: ≤ 100 nM

Structure (SMILES): CCN(C(=O)c1ccc(NC(=O)Cc2ccc(S(=O)(=O)CC3CC3)cc2)cc1)c1cccc(C(=O)OC)c1 [Example 30, methyl 3-{N-ethyl-4-[2-(4-cyclopropylmethanesulfonylphenyl)acetamido]benzamido}benzoate]
- IC50: ≤ 100 nM

Structure (SMILES): CCN(C(=O)c1ccc(NC(=O)Cc2ccc(S(=O)(=O)NC3CC3)cc2)cc1)c1cccc(C(=O)OC)c1 [Example 47, methyl 3-(N-ethyl-4-{2-[4-(cyclopropylsulfamoyl)phenyl]acetamido}benzamido) benzoate]
- IC50: ≤ 100 nM

Structure (SMILES): O=C(Cc1ccc(S(=O)(=O)CC2CC2)cc1)Nc1ccc(C(=O)N(C2CCC2)C2CCC2)cc1 [Example 27, N,N-dicyclobutyl-4-[2-(4-cyclopropylmethanesulfonylphenyl)acetamido]benzamide]
- IC50: ≤ 100 nM

Structure (SMILES): CCOC(=O)c1cc2c(s1)CN(C(=O)c1ccc(NC(=O)Cc3ccc(S(=O)(=O)CC4CC4)cc3)cc1)CC2 [Example 33, ethyl 6-{4-[2-(4-cyclopropylmethanesulfonylphenyl)acetamido]benzoyl}-4H,5H,6H,7H-thieno[2,3-c]pyridine-2-carboxylate]
- IC50: ≤ 1000 nM

Structure (SMILES): C=CCN(CC=C)C(=O)c1ccc(NC(=O)Cc2ccc(S(=O)(=O)CC3CC3)cc2)cc1 [Example 61, 4-[2-(4-cyclopropylmethanesulfonylphenyl)acetamido]-N,N-bis(prop-2-en-1-yl)benzamide]
- IC50: ≤ 100 nM

Structure (SMILES): CCN(C(=O)c1ccc(NC(=O)Cc2ccc(S(=O)(=O)NC3CC3)cc2)cc1)c1c(C)noc1C [Example 110, 4-{2-[4-(cyclopropylsulfamoyl)phenyl]acetamido}-N-(dimethyl-1,2-oxazol-4-yl)-N-ethylbenzamide]
- IC50: ≤ 1000 nM

Structure (SMILES): COCCN(C(=O)c1ccc(NC(=O)Cc2ccc(S(=O)(=O)CC3CC3)cc2)cc1)C1CC1 [Example 79, N-cyclopropyl-4-[[2-[4-(cyclopropylmethylsulfonyl)phenyl]acetyl]amino]-N-(2-methoxyethyl)benzamide]
- IC50: ≤ 1000 nM

Structure (SMILES): CC(C)(C)N(C(=O)c1ccc(NC(=O)Cc2ccc(S(=O)(=O)CC3CC3)nc2)c(F)c1)c1ccccc1 [Example 159, N-tert-butyl-4-[2-(6-cyclopropylmethanesulfonylpyridin-3-yl)acetamido]-3-fluoro-N-phenylbenzamide]
- IC50: ≤ 10 nM

Structure (SMILES): O=C(Cc1ccc(S(=O)(=O)CC2CC2)cc1)Nc1ccc(C(=O)N(c2ccccc2)C2COC2)cc1 [Example 149, 4-[2-(4-cyclopropylmethanesulfonylphenyl)acetamido]-N-(oxetan-3-yl)-N-phenylbenzamide]
- IC50: ≤ 10 nM

Structure (SMILES): O=C(Cc1ccc(S(=O)(=O)NC2CC2)cc1)Nc1ccc(C(=O)N(Cc2ccccc2)Cc2ccccc2)cc1 [Example 24, N,N-dibenzyl-4-{2-[4-(cyclopropylsulfamoyl)phenyl]acetamido}benzamide]
- IC50: ≤ 100 nM

Structure (SMILES): CCCN(C)C(=O)c1ccc(NC(=O)Cc2ccc(S(=O)(=O)CC3CC3)cc2)cc1 [Example 7, 4-[2-(4-cyclopropylmethanesulfonylphenyl)acetamido]-N-methyl-N-propylbenzamide]
- IC50: ≤ 1000 nM

Structure (SMILES): CCN(C(=O)c1ccc(NC(=O)Cc2ccc(S(=O)(=O)CC3CC3)cc2)cc1C)c1ccccc1Cl [Example 166, N-(2-chlorophenyl)-4-[2-(4-cyclopropylmethanesulfonylphenyl)acetamido]-N-ethyl-2-methylbenzamide]
- IC50: ≤ 10 nM

Structure (SMILES): CCCN(C(=O)c1ccc(NC(=O)Cc2ccc(S(=O)(=O)NC3CC3)cc2)cc1)c1cc(C)on1 [Example 93, 4-{2-[4-(cyclopropylsulfamoyl)phenyl]acetamido}-N-(5-methyl-1,2-oxazol-3-yl)-N-propylbenzamide]
- IC50: ≤ 10 nM

Structure (SMILES): CCCN(C(=O)c1ccc(NC(=O)Cc2ccc(S(=O)(=O)CC3CC3)cc2)cc1)c1cc(C)on1 [Example 87, 4-[2-(4-cyclopropylmethanesulfonylphenyl)acetamido]-N-(5-methyl-1,2-oxazol-3-yl)-N-propylbenzamide]
- IC50: ≤ 10 nM

Structure (SMILES): CCN(C(=O)c1ccc(NC(=O)Cc2ccc(S(=O)(=O)CC3CC3)cc2)cc1)c1cc(C)nn1C [Example 88, 4-[2-(4-cyclopropylmethanesulfonylphenyl)acetamido]-N-(1,3-dimethyl-1H-pyrazol-5-yl)-N-ethylbenzamide]
- IC50: ≤ 10 nM

Structure (SMILES): CC(C)(C)N(C(=O)c1ccc(NC(=O)Cc2ccc(S(=O)(=O)CC3CC3)cc2)c(F)c1)c1ccccc1 [Example 134, N-tert-butyl-4-[2-(4-cyclopropylmethanesulfonylphenyl)acetamido]-3-fluoro-N-phenylbenzamide]
- IC50: ≤ 10 nM

Structure (SMILES): CCCN(C(=O)c1ccc(NC(=O)Cc2ccc(S(=O)(=O)NC3CC3)cc2)cc1)c1ccccc1 [Example 22, 4-{2-[4-(cyclopropylsulfamoyl)phenyl]acetamido}-N-phenyl-N-propylbenzamide]
- IC50: ≤ 100 nM

Structure (SMILES): O=C(Cc1ccc(S(=O)(=O)CC2CC2)nc1)Nc1ccc(C(=O)N(CC(F)(F)F)c2ccccc2)cc1 [Example 155, 4-[2-(6-cyclopropylmethanesulfonylpyridin-3-yl)acetamido]-N-phenyl-N-(2,2,2-trifluoroethyl)benzamide]
- IC50: ≤ 10 nM

Structure (SMILES): CCN(C(=O)c1ccc(NC(=O)Cc2ccc(S(=O)(=O)NC3CC3)cc2)cc1)c1cccnc1 [Example 50, 4-{2-[4-(cyclopropylsulfamoyl)phenyl]acetamido}-N-ethyl-N-(pyridin-3-yl)benzamide]
- IC50: ≤ 1000 nM

Structure (SMILES): CCN(C(=O)c1ccc(NC(=O)Cc2ccc(S(=O)(=O)CC3CC3)cc2)cc1)c1ccc(C)cc1 [Example 29, 4-[2-(4-cyclopropylmethanesulfonylphenyl)acetamido]-N-ethyl-N-(4-methylphenyl)benzamide]
- IC50: ≤ 10 nM

Structure (SMILES): CCN(C(=O)c1ccc(NC(=O)Cc2ccc(S(=O)(=O)NC3CC3)cc2)cc1F)c1ccccc1 [Example 111, 4-{2-[4-(cyclopropylsulfamoyl)phenyl]acetamido}-N-ethyl-2-fluoro-N-phenylbenzamide]
- IC50: ≤ 1000 nM
